Assay results published in ChEMBL document CHEMBL1862790, “Optimisation of fenarimol series for the treatment of Chagas disease”.

Experiments:
Trypanosoma cruzi [1] = test: microbe, parasite or virus in culture; type: functional, organism-based, Tulahuen LacZ, Clone C4; conditions: Trypanosoma cruzi, Tulahuen LacZ, Clone C4
[2] = DNDI: Cytotoxicity against L-6 rat myoblasts from skeletal muscle cells; conditions: L6 rat skeletal muscle myoblast cells
Trypanosoma cruzi [3] = test: microbe, parasite or virus in culture; type: functional, Tulahuen LacZ, Clone C4; conditions: Trypanosoma cruzi, Tulahuen LacZ, Clone C4

CC(C)Oc1ccc(C(O)(c2cccnc2)c2ccccc2F)cc1 (configuration not stated)
IC50 (Trypanosoma cruzi [1]): 3.3 nM
IC50 [2]: 74000 nM
IC90 (Trypanosoma cruzi [3]): 240 nM

Clc1ccc(C(c2cccnc2)N2CCCCC2)cc1 (configuration not stated)
IC50 (Trypanosoma cruzi [1]): 180 nM
IC50 ([2]; IC50): > 100000 nM
IC90 (Trypanosoma cruzi [3]): 450 nM

Cc1ccncc1C(O)(c1ccc(Cl)cc1)c1ccc(C(F)(F)F)cc1 (configuration not stated)
IC50 (Trypanosoma cruzi [1]): 42 nM
IC50 ([2]; IC50): 56500 nM
IC90 (Trypanosoma cruzi [3]): 140 nM

CCCCOC(Cc1ccc(Cl)nc1)c1ccc(Cl)cc1Cl (configuration not stated)
IC50 (Trypanosoma cruzi [1]): > 10000 nM
IC50 ([2]; IC50): 91400 nM
IC90 (Trypanosoma cruzi [3]): > 10000 nM

CN1CCN(C(c2ccc(Cl)cc2)c2cccnc2)CC1 (configuration not stated)
IC50 (Trypanosoma cruzi [1]): > 1000 nM
IC50 ([2]; IC50): > 100000 nM
IC90 (Trypanosoma cruzi [3]): > 1000 nM

Clc1ccc(C(NCCc2c[nH]c3ccccc23)c2cccnc2)cc1 (configuration not stated)
IC50 (Trypanosoma cruzi [1]): 14 nM
IC50 ([2]; IC50): 48700 nM
IC90 (Trypanosoma cruzi [3]): 190 nM

Clc1ccc(C(NCc2ccccc2)c2cccnc2)cc1 (configuration not stated)
IC50 (Trypanosoma cruzi [1]): 96 nM
IC50 ([2]; IC50): > 100000 nM
IC90 (Trypanosoma cruzi [3]): 210 nM

CON=C(Cc1ccccc1C)c1cccnc1
IC50 (Trypanosoma cruzi [1]): > 1000 nM
IC50 ([2]; IC50): > 100000 nM
IC90 (Trypanosoma cruzi [3]): > 1000 nM

Cc1ccncc1C(O)(c1ccc(Cl)cc1)c1cncnc1 (configuration not stated)
IC50 (Trypanosoma cruzi [1]): 253 nM
IC50 ([2]; IC50): > 100000 nM
IC90 (Trypanosoma cruzi [3]): 570 nM

OC(c1cccnc1)(c1cccs1)c1ccc(Cl)cc1F (configuration not stated)
IC50 (Trypanosoma cruzi [1]): 5 nM
IC50 ([2]; IC50): > 100000 nM
IC90 (Trypanosoma cruzi [3]): 105 nM

CS(=O)(=O)Nc1ccc(C(O)(c2ccc(Cl)cc2)c2cccnc2)cc1 (configuration not stated)
IC50 (Trypanosoma cruzi [1]): 30 nM
IC50 ([2]; IC50): > 100000 nM
IC90 (Trypanosoma cruzi [3]): 240 nM

N#Cc1ccccc1C(O)(c1ccc(Cl)cc1)c1cccnc1 (configuration not stated)
IC50 (Trypanosoma cruzi [1]): 62 nM
IC50 ([2]; IC50): > 100000 nM
IC90 (Trypanosoma cruzi [3]): 150 nM

Clc1ccc(C(=NN2CCCCC2)c2cccnc2)cc1
IC50 (Trypanosoma cruzi [1]): 381 nM
IC50 ([2]; IC50): 56800 nM
IC90 (Trypanosoma cruzi [3]): 630 nM

CCN1CCN(C(c2ccc(Cl)cc2)c2cccnc2)CC1 (configuration not stated)
IC50 (Trypanosoma cruzi [1]): > 1000 nM
IC50 ([2]; IC50): > 100000 nM
IC90 (Trypanosoma cruzi [3]): > 1000 nM

NC(=O)c1ccc(C(O)(c2ccc(C(F)(F)F)cc2)c2cccnc2)cc1 (configuration not stated)
IC50 (Trypanosoma cruzi [1]): 120 nM
IC50 ([2]; IC50): > 100000 nM
IC90 (Trypanosoma cruzi [3]): 390 nM

Cc1ccc(C(O)(c2ccc(Cl)cc2)c2cncnc2)cn1 (configuration not stated)
IC50 (Trypanosoma cruzi [1]): 435 nM
IC50 ([2]; IC50): > 100000 nM
IC90 (Trypanosoma cruzi [3]): > 1000 nM

CCCCC(O)(c1ccc(OC(C)C)cc1)c1cccnc1 (configuration not stated)
IC50 (Trypanosoma cruzi [1]): 17 nM
IC50 ([2]; IC50): 55900 nM
IC90 (Trypanosoma cruzi [3]): 36 nM

OC(c1ccc(Cl)cc1)(c1ccc(C(F)(F)F)cc1)c1nnc[nH]1 (configuration not stated)
IC50 (Trypanosoma cruzi [1]): 7420 nM
IC50 ([2]; IC50): > 100000 nM
IC90 (Trypanosoma cruzi [3]): > 10000 nM

CC(C)CC(Nc1cccnc1)c1ccc(Cl)cc1 (configuration not stated)
IC50 (Trypanosoma cruzi [1]): 640 nM
IC50 ([2]; IC50): 56200 nM
IC90 (Trypanosoma cruzi [3]): > 1000 nM

CO/N=C(\c1ccc(Cl)cc1)c1cccnc1
IC50 (Trypanosoma cruzi [1]): > 1000 nM
IC50 ([2]; IC50): > 100000 nM
IC90 (Trypanosoma cruzi [3]): > 1000 nM

OC(c1ccc(Cl)cc1)(c1ccc(C(F)(F)F)cc1)c1cc(-c2ccccc2)on1 (configuration not stated)
IC50 (Trypanosoma cruzi [1]): > 1000 nM
IC50 ([2]; IC50): 18700 nM
IC90 (Trypanosoma cruzi [3]): > 1000 nM

OC(c1ccc(Cl)cc1)(c1ccc(C(F)(F)F)cc1)c1cnc2ccccc2c1 (configuration not stated)
IC50 (Trypanosoma cruzi [1]): > 1000 nM
IC50 ([2]; IC50): 62600 nM
IC90 (Trypanosoma cruzi [3]): > 1000 nM

OC(c1ccc(C(F)(F)F)cc1)(c1cccnc1)c1ccccc1F (configuration not stated)
IC50 (Trypanosoma cruzi [1]): 22 nM
IC50 [2]: > 100000 nM
IC90 (Trypanosoma cruzi [3]): 210 nM

Cc1cnc(C(O)(c2ccc(Cl)cc2)c2ccc(C(F)(F)F)cc2)cn1 (configuration not stated)
IC50 (Trypanosoma cruzi [1]): > 1000 nM
IC50 ([2]; IC50): 61600 nM
IC90 (Trypanosoma cruzi [3]): > 1000 nM

NC(=O)c1ccccc1C(O)(c1ccc(Cl)cc1)c1cccnc1 (configuration not stated)
IC50 (Trypanosoma cruzi [1]): 33 nM
IC50 ([2]; IC50): > 100000 nM
IC90 (Trypanosoma cruzi [3]): 140 nM

OC(c1ccc(Cl)cc1)(c1ccc(C(F)(F)F)cc1)c1ccc2ncccc2c1 (configuration not stated)
IC50 (Trypanosoma cruzi [1]): 2840 nM
IC50 ([2]; IC50): 56300 nM
IC90 (Trypanosoma cruzi [3]): 7490 nM

CC(C)Oc1ccc(C(O)(c2cccnc2)c2cnc(Cl)nc2)cc1 (configuration not stated)
IC50 (Trypanosoma cruzi [1]): 293 nM
IC50 ([2]; IC50): > 100000 nM
IC90 (Trypanosoma cruzi [3]): 670 nM

CC(C)c1ccc(C(O)(c2ccc(C(F)(F)F)cc2)c2cncnc2)cc1 (configuration not stated)
IC50 (Trypanosoma cruzi [1]): 4.5 nM
IC50 ([2]; IC50): 56500 nM
IC90 (Trypanosoma cruzi [3]): 20 nM

OC(c1ccc(Cl)cc1)(c1cccnc1)c1cccc(F)c1F (configuration not stated)
IC50 (Trypanosoma cruzi [1]): 107 nM
IC50 [2]: > 100000 nM
IC90 (Trypanosoma cruzi [3]): 256 nM

COc1ccc(CNC(c2ccc(Cl)cc2)c2cccnc2)cc1 (configuration not stated)
IC50 (Trypanosoma cruzi [1]): 78 nM
IC50 ([2]; IC50): > 100000 nM
IC90 (Trypanosoma cruzi [3]): 899 nM

Cc1cnc(C(O)(c2ccc(Cl)cc2)c2cncnc2)cn1 (configuration not stated)
IC50 (Trypanosoma cruzi [1]): 2110 nM
IC50 ([2]; IC50): > 100000 nM
IC90 (Trypanosoma cruzi [3]): 5910 nM

N#CC(c1ccc(Cl)cc1)N1CCN(c2ccccc2)CC1 (configuration not stated)
IC50 (Trypanosoma cruzi [1]): > 1000 nM
IC50 ([2]; IC50): > 100000 nM
IC90 (Trypanosoma cruzi [3]): > 1000 nM

Clc1ccc(C(NCC2CCCCC2)c2cccnc2)cc1 (configuration not stated)
IC50 (Trypanosoma cruzi [1]): 32 nM
IC50 ([2]; IC50): 59700 nM
IC90 (Trypanosoma cruzi [3]): 80 nM

Clc1ccc(C(c2cccnc2)n2cccn2)cc1 (configuration not stated)
IC50 (Trypanosoma cruzi [1]): 290 nM
IC50 ([2]; IC50): > 100000 nM
IC90 (Trypanosoma cruzi [3]): 570 nM

OC(c1ccc(Cl)cc1)(c1cncnc1)c1ccc(Cl)cc1F (configuration not stated)
IC50 (Trypanosoma cruzi [1]): 52 nM
IC50 ([2]; IC50): 54100 nM
IC90 (Trypanosoma cruzi [3]): 450 nM

Cc1ccc(C(O)(c2cccnc2)c2ccccc2Cl)cc1 (configuration not stated)
IC50 (Trypanosoma cruzi [1]): 70 nM
IC50 [2]: > 100000 nM
IC90 (Trypanosoma cruzi [3]): 160 nM

CCCCC(NCC1CCCCC1)c1cccnc1 (configuration not stated)
IC50 (Trypanosoma cruzi [1]): 450 nM
IC50 ([2]; IC50): > 100000 nM
IC90 (Trypanosoma cruzi [3]): 700 nM

OC(c1ccc(Cl)cc1)(c1cccnc1)c1cc(F)ccc1F (configuration not stated)
IC50 (Trypanosoma cruzi [1]): 44 nM
IC50 [2]: > 100000 nM
IC90 (Trypanosoma cruzi [3]): 108 nM

CC(C)Oc1ncc(C(O)(c2ccc(Cl)cc2)c2cccnc2)cn1 (configuration not stated)
IC50 (Trypanosoma cruzi [1]): 60 nM
IC50 ([2]; IC50): > 100000 nM
IC90 (Trypanosoma cruzi [3]): 230 nM

CSc1ncc(C(O)(c2ccc(Cl)cc2)c2cccnc2)cn1 (configuration not stated)
IC50 (Trypanosoma cruzi [1]): 288 nM
IC50 ([2]; IC50): > 100000 nM
IC90 (Trypanosoma cruzi [3]): 600 nM

OC(c1ccc(Cl)cc1)(c1cccnc1)c1c(F)cccc1F (configuration not stated)
IC50 (Trypanosoma cruzi [1]): 80 nM
IC50 [2]: > 100000 nM
IC90 (Trypanosoma cruzi [3]): 182 nM

CS(=O)(=O)N1CCN(C(c2ccc(Cl)cc2)c2cccnc2)CC1 (configuration not stated)
IC50 (Trypanosoma cruzi [1]): 110 nM
IC50 ([2]; IC50): > 100000 nM
IC90 (Trypanosoma cruzi [3]): 216 nM

CC(C)CC(=O)N1CCN(C(c2ccc(Cl)cc2)c2cccnc2)CC1 (configuration not stated)
IC50 (Trypanosoma cruzi [1]): 55 nM
IC50 ([2]; IC50): > 100000 nM
IC90 (Trypanosoma cruzi [3]): 180 nM

Cc1ccsc1C(O)(c1ccc(Cl)cc1)c1cccnc1 (configuration not stated)
IC50 (Trypanosoma cruzi [1]): 20 nM
IC50 ([2]; IC50): 74200 nM
IC90 (Trypanosoma cruzi [3]): 90 nM

OC(c1cccnc1)(c1ccccc1Cl)c1ccccc1C(F)(F)F (configuration not stated)
IC50 (Trypanosoma cruzi [1]): 297 nM
IC50 [2]: > 100000 nM
IC90 (Trypanosoma cruzi [3]): 724 nM

OC(c1ccc(C(F)(F)F)cc1)(c1cccnc1)c1ccc(Cl)cc1F (configuration not stated)
IC50 (Trypanosoma cruzi [1]): 1.77 nM
IC50 [2]: > 100000 nM
IC90 (Trypanosoma cruzi [3]): 5 nM

OC(c1ccc(Cl)cc1)(c1ccc(Cl)cc1)c1cccc(F)c1
IC50 (Trypanosoma cruzi [1]): 560 nM
IC50 ([2]; IC50): 53200 nM
IC90 (Trypanosoma cruzi [3]): 840 nM

N#CC(c1ccc(Cl)cc1)c1ccccn1 (configuration not stated)
IC50 (Trypanosoma cruzi [1]): > 1000 nM
IC50 ([2]; IC50): > 100000 nM
IC90 (Trypanosoma cruzi [3]): > 1000 nM

OC(c1ccc(Cl)cc1)c1cccnc1 (configuration not stated)
IC50 (Trypanosoma cruzi [1]): 4750 nM
IC50 ([2]; IC50): > 100000 nM
IC90 (Trypanosoma cruzi [3]): > 10000 nM

OC(c1ccc(Cl)cc1)(c1cncnc1)c1cscn1 (configuration not stated)
IC50 (Trypanosoma cruzi [1]): 251 nM
IC50 ([2]; IC50): > 100000 nM
IC90 (Trypanosoma cruzi [3]): 650 nM

O=C1CCCN1CCCNC(c1ccc(Cl)cc1)c1cccnc1 (configuration not stated)
IC50 (Trypanosoma cruzi [1]): 378 nM
IC50 ([2]; IC50): > 100000 nM
IC90 (Trypanosoma cruzi [3]): 820 nM

OC(c1ccc(Cl)cc1)(c1cccnc1)c1cncs1 (configuration not stated)
IC50 (Trypanosoma cruzi [1]): 140 nM
IC50 ([2]; IC50): > 100000 nM
IC90 (Trypanosoma cruzi [3]): 500 nM

Cc1noc(C)c1C(O)(c1ccc(Cl)cc1)c1ccc(C(F)(F)F)cc1 (configuration not stated)
IC50 (Trypanosoma cruzi [1]): > 1000 nM
IC50 ([2]; IC50): 57900 nM
IC90 (Trypanosoma cruzi [3]): > 1000 nM

OC1CCN(C(c2ccc(Cl)cc2)c2cccnc2)CC1 (configuration not stated)
IC50 (Trypanosoma cruzi [1]): 800 nM
IC50 ([2]; IC50): > 100000 nM
IC90 (Trypanosoma cruzi [3]): > 1000 nM

OC(c1cccnc1)(c1cnc(Cl)nc1)c1ccc(Cl)cc1F (configuration not stated)
IC50 (Trypanosoma cruzi [1]): 179 nM
IC50 ([2]; IC50): > 100000 nM
IC90 (Trypanosoma cruzi [3]): 630 nM

CON=C(Cc1ccc(Cl)cc1Cl)c1cccnc1
IC50 (Trypanosoma cruzi [1]): 2140 nM
IC50 ([2]; IC50): 91300 nM
IC90 (Trypanosoma cruzi [3]): 4870 nM

Clc1ccc(C(c2cccnc2)c2cccs2)cc1 (configuration not stated)
IC50 (Trypanosoma cruzi [1]): 17 nM
IC50 ([2]; IC50): > 100000 nM
IC90 (Trypanosoma cruzi [3]): 45 nM

CC(C)C(=O)N1CCN(C(c2cccnc2)c2ccc(Cl)cc2F)CC1 (configuration not stated)
IC50 (Trypanosoma cruzi [1]): 62 nM
IC50 ([2]; IC50): > 100000 nM
IC90 (Trypanosoma cruzi [3]): 220 nM

N#Cc1cccc(C(O)(c2ccc(Cl)cc2)c2cccnc2)c1 (configuration not stated)
IC50 (Trypanosoma cruzi [1]): 110 nM
IC50 ([2]; IC50): > 100000 nM
IC90 (Trypanosoma cruzi [3]): 510 nM
